Measured values: patent publication US8192962B2, “Processes for detecting toxic substances” (Daikin Industries, Ltd., priority 2001, dated 2012)

System: Energy system protein genes
Test: DNA chip mRNA expression in yeast, energy system protein genes (Table 4)
Assay type: cell-based, Saccharomyces cerevisiae S288C
Method in brief: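 Ratios compare mRNA levels in stressed and control S. cerevisiae. Each toxicant was applied for two hours to log-phase cultures at 25° C. at a sub-lethal, growth-inhibiting level; fluorescent cDNA (Cy3- or Cy5-dUTP) was hybridized to a genome-wide yeast chip for over 12 h at 65° C.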

SMILES: CN(C)C(=S)SSC(=S)N(C)C [(10), Tetramethylthiuram disulfide]
- The level of expressed mRNA in the presence of chemical substance/The level of expressed mRNA in the absence of chemical substance (yeast gene YAL060W): 2.5
- The level of expressed mRNA in the presence of chemical substance/The level of expressed mRNA in the absence of chemical substance (yeast gene YBL058W, cells incubated two hours with the chemical substance): 2.1
- The level of expressed mRNA in the presence of chemical substance/The level of expressed mRNA in the absence of chemical substance (yeast gene YBL099W, cells incubated two hours with the chemical substance): 0.7
- The level of expressed mRNA in the presence of chemical substance/The level of expressed mRNA in the absence of chemical substance (yeast gene YBR001C, cells incubated two hours with the chemical substance): 2.1
- The level of expressed mRNA in the presence of chemical substance/The level of expressed mRNA in the absence of chemical substance (yeast gene YBR185C, cells incubated two hours with the chemical substance): 1.6
- The level of expressed mRNA in the presence of chemical substance/The level of expressed mRNA in the absence of chemical substance (yeast gene YBR221C, cells incubated two hours with the chemical substance): 1.3
- The level of expressed mRNA in the presence of chemical substance/The level of expressed mRNA in the absence of chemical substance (yeast gene YCL040W): 3.0
- The level of expressed mRNA in the presence of chemical substance/The level of expressed mRNA in the absence of chemical substance (yeast gene YCR012W): 1.5
- The level of expressed mRNA in the presence of chemical substance/The level of expressed mRNA in the absence of chemical substance (yeast gene YCR046C, cells incubated two hours with the chemical substance): 1.4
- The level of expressed mRNA in the presence of chemical substance/The level of expressed mRNA in the absence of chemical substance (yeast gene YCR105W, cells incubated two hours with the chemical substance): 3.9
- The level of expressed mRNA in the presence of chemical substance/The level of expressed mRNA in the absence of chemical substance (yeast gene YDL021W): 7.4
- The level of expressed mRNA in the presence of chemical substance/The level of expressed mRNA in the absence of chemical substance (yeast gene YDL067C, cells incubated two hours with the chemical substance): 0.9
- The level of expressed mRNA in the presence of chemical substance/The level of expressed mRNA in the absence of chemical substance (yeast gene YDL078C, cells incubated two hours with the chemical substance): 1.0
- The level of expressed mRNA in the presence of chemical substance/The level of expressed mRNA in the absence of chemical substance (yeast gene YDL107W, cells incubated two hours with the chemical substance): 1.8
- The level of expressed mRNA in the presence of chemical substance/The level of expressed mRNA in the absence of chemical substance (yeast gene YDL174C): 1.7
- The level of expressed mRNA in the presence of chemical substance/The level of expressed mRNA in the absence of chemical substance (yeast gene YDL181W, cells incubated two hours with the chemical substance): 0.8
- The level of expressed mRNA in the presence of chemical substance/The level of expressed mRNA in the absence of chemical substance (yeast gene YDR001C): 3.0
- The level of expressed mRNA in the presence of chemical substance/The level of expressed mRNA in the absence of chemical substance (yeast gene YDR050C, cells incubated two hours with the chemical substance): 1.3
- The level of expressed mRNA in the presence of chemical substance/The level of expressed mRNA in the absence of chemical substance (yeast gene YDR079W, cells incubated two hours with the chemical substance): 0.8
- The level of expressed mRNA in the presence of chemical substance/The level of expressed mRNA in the absence of chemical substance (yeast gene YDR178W, cells incubated two hours with the chemical substance): 0.8
- The level of expressed mRNA in the presence of chemical substance/The level of expressed mRNA in the absence of chemical substance (yeast gene YDR231C): 1.4
- The level of expressed mRNA in the presence of chemical substance/The level of expressed mRNA in the absence of chemical substance (yeast gene YDR298C, cells incubated two hours with the chemical substance): 1.6
- The level of expressed mRNA in the presence of chemical substance/The level of expressed mRNA in the absence of chemical substance (yeast gene YDR377W, cells incubated two hours with the chemical substance): 0.9
- The level of expressed mRNA in the presence of chemical substance/The level of expressed mRNA in the absence of chemical substance (yeast gene YDR529C, cells incubated two hours with the chemical substance): 0.6
- The level of expressed mRNA in the presence of chemical substance/The level of expressed mRNA in the absence of chemical substance (yeast gene YEL024W, cells incubated two hours with the chemical substance): 0.6
- The level of expressed mRNA in the presence of chemical substance/The level of expressed mRNA in the absence of chemical substance (yeast gene YEL039C, cells incubated two hours with the chemical substance): 1.2
- The level of expressed mRNA in the presence of chemical substance/The level of expressed mRNA in the absence of chemical substance (yeast gene YER178W): 1.3
- The level of expressed mRNA in the presence of chemical substance/The level of expressed mRNA in the absence of chemical substance (yeast gene YFL057C): 46.1
- The level of expressed mRNA in the presence of chemical substance/The level of expressed mRNA in the absence of chemical substance (yeast gene YFR053C): 1.1
- The level of expressed mRNA in the presence of chemical substance/The level of expressed mRNA in the absence of chemical substance (yeast gene YGL018C, cells incubated two hours with the chemical substance): 1.4
- The level of expressed mRNA in the presence of chemical substance/The level of expressed mRNA in the absence of chemical substance (yeast gene YGL062W): 2.5
- The level of expressed mRNA in the presence of chemical substance/The level of expressed mRNA in the absence of chemical substance (yeast gene YGL187C, cells incubated two hours with the chemical substance): 0.6
- The level of expressed mRNA in the presence of chemical substance/The level of expressed mRNA in the absence of chemical substance (yeast gene YGL191W, cells incubated two hours with the chemical substance): 1.3
- The level of expressed mRNA in the presence of chemical substance/The level of expressed mRNA in the absence of chemical substance (yeast gene YGL205W, cells incubated two hours with the chemical substance): 0.6
- The level of expressed mRNA in the presence of chemical substance/The level of expressed mRNA in the absence of chemical substance (yeast gene YGL256W, cells incubated two hours with the chemical substance): 1.2
- The level of expressed mRNA in the presence of chemical substance/The level of expressed mRNA in the absence of chemical substance (yeast gene YGR008C): 2.4
- The level of expressed mRNA in the presence of chemical substance/The level of expressed mRNA in the absence of chemical substance (yeast gene YGR043C): 8.4
- The level of expressed mRNA in the presence of chemical substance/The level of expressed mRNA in the absence of chemical substance (yeast gene YGR062C, cells incubated two hours with the chemical substance, 25° C., YPD medium): 1.4
- The level of expressed mRNA in the presence of chemical substance/The level of expressed mRNA in the absence of chemical substance (yeast gene YGR087C, cells incubated two hours with the chemical substance): 0.9
- The level of expressed mRNA in the presence of chemical substance/The level of expressed mRNA in the absence of chemical substance (yeast gene YGR174C, cells incubated two hours with the chemical substance): 0.7
- The level of expressed mRNA in the presence of chemical substance/The level of expressed mRNA in the absence of chemical substance (yeast gene YGR192C): 1.3
- The level of expressed mRNA in the presence of chemical substance/The level of expressed mRNA in the absence of chemical substance (yeast gene YGR207C): 2.6
- The level of expressed mRNA in the presence of chemical substance/The level of expressed mRNA in the absence of chemical substance (yeast gene YGR244C): 1.1
- The level of expressed mRNA in the presence of chemical substance/The level of expressed mRNA in the absence of chemical substance (yeast gene YGR254W): 1.2
- The level of expressed mRNA in the presence of chemical substance/The level of expressed mRNA in the absence of chemical substance (yeast gene YGR256W): 2.5
- The level of expressed mRNA in the presence of chemical substance/The level of expressed mRNA in the absence of chemical substance (yeast gene YHL008C): 1.7
- The level of expressed mRNA in the presence of chemical substance/The level of expressed mRNA in the absence of chemical substance (yeast gene YHR179W): 5.8
- The level of expressed mRNA in the presence of chemical substance/The level of expressed mRNA in the absence of chemical substance (yeast gene YIL160C): 3.8
- The level of expressed mRNA in the presence of chemical substance/The level of expressed mRNA in the absence of chemical substance (yeast gene YIL172C): 7.1
- The level of expressed mRNA in the presence of chemical substance/The level of expressed mRNA in the absence of chemical substance (yeast gene YIR031C, cells incubated two hours with the chemical substance): 1.0
- The level of expressed mRNA in the presence of chemical substance/The level of expressed mRNA in the absence of chemical substance (yeast gene YJL052W): 2.0
- The level of expressed mRNA in the presence of chemical substance/The level of expressed mRNA in the absence of chemical substance (yeast gene YJL121C, cells incubated two hours with the chemical substance): 0.4
- The level of expressed mRNA in the presence of chemical substance/The level of expressed mRNA in the absence of chemical substance (yeast gene YJL166W, cells incubated two hours with the chemical substance): 1.2
